{"source": "patent US11058676B2", "about": "“Quinolinone lysyl oxidase-like 2 inhibitors and uses thereof” (PHARMAKEA, INC., priority 2016, dated 2021)", "tested_on": "C57Bl/6 male mice", "test": "Mouse oropharyngeal bleomycin model of lung fibrosis", "type": "in vivo", "details": "dosed prophylactically at 60 mg/kg p.o.", "procedure": "Example B-3: Mouse Oropharyngeal Bleomycin Model of Lung Fibrosis\nLung fibrosis is induced in C57Bl/6 male mice by administering bleomycin (0.1-4 U/kg) via oropharyngeal instillation. Mice are either pretreated with vehicle or test compound (1 day to 1 hour) orally, intraperitoneally, intravenously or subcutaneously before bleomycin installation (prophylactic dosing) or 7-14 days post bleomycin instillation (therapeutic dosing). The route and frequency of dosing are based on previously determined pharmacokinetic properties for the LOXL2 inhibitor in mouse. After bleomycin instillation animals are monitored daily for weight loss and clinical signs for 14-28 days prior to sacrifice. […] For histological examination, lung slices are stained with Masson's trichrome or Picro-Sirius red to measure cross-linked collagen as an indicator of fibrosis and an Ashcroft score of lung fibrotic and inflammatory damage determined. In addition, immunohistochemistry of fibrotic proteins such as a-smooth muscle actin can be recorded. […] After the acid hydrolysis, 25-100 μl of the supernatant is dried down, resuspended in 25 μl water and the hydroxyproline content determined by the addition of 0.5 ml Chloramine T solution (140 mg Chloramine T in 6.5 ml ddH2O+1 ml n-propanol+2.5 ml 1M sodium acetate) and incubation at room temperature for 20 min. […]"}
{"smiles": "NCc1cc(=O)c2cc(Br)ccc2[nH]1", "note": "[Compound 1-3, 2-(Aminomethyl)-6-bromoquinolin-4(1H)-one]", "values": [{"measurement": "efficacy in mouse oropharyngeal bleomycin model of lung fibrosis", "result": "efficacious"}]}
